Earlier results in PMC5488394, “30 YEARS OF THE MINERALOCORTICOID RECEPTOR: Mineralocorticoid receptor antagonists: 60 years of research and development” (The Journal of Endocrinology, 2017).
Where two headings read alike, the source gives them in different places.

How the values were obtained:
[1] = cited from earlier work; for mean half-life of spironolactone metabolite: healthy volunteers; for peak absolute plasma concentration / peak relative plasma concentration: steady state after oral 100 mg spironolactone per day
S810L MR mutant = tested on: S810L MR mutant; design: method as in Geller et al. 2000, Amazit et al. 2015; settings: ref Geller et al. 2000, Amazit et al. 2015; cited from earlier work
[2] = tested on: estrogen-primed immature rabbits; design: method as in Hertz & Tullner 1958; settings: Clauberg assay; ref Hertz & Tullner 1958; cited from earlier work
[3] = design: method as in Liddle 1957; settings: patient with congestive heart failure and patient with Addison's disease; ref Liddle 1957; cited from earlier work
[4] = tested on: mineralocorticoid-dependent sodium retention; settings: cited from earlier work
MR = tested on: MR; design: method as in Losert et al. 1985; settings: ref Losert et al. 1985; cited from earlier work
human MR = tested on: human MR; design: method as in Arai et al. 2015a; settings: ref Arai et al. 2015a; read-out: IC50, block of aldosterone-induced transcriptional activation of human MR; cited from earlier work
[5] = design: method as in Weinberger et al. 2002; settings: 100 mg OD or 50 mg BID, hypertensive patients; ref Weinberger et al. 2002; cited from earlier work
[6] = design: method as in de Gasparo et al. 1989; settings: fludrocortisone challenge, healthy volunteers; 50 mg vs 25 mg spironolactone; ref de Gasparo et al. 1989; cited from earlier work
[7] = radioactively labeled, rats; ref Kolkhof & Borden 2012; cited from earlier work
[8] = ref Pitt et al. 2003, cited from earlier work
human plasma proteins = settings: cited from earlier work
[9] = tested on: Dahl salt-sensitive hypertensive rats; design: method as in Arai et al. 2015b; settings: ref Arai et al. 2015b, cited from earlier work; for cardiorenal protection: 100 mg/kg
[10] = cited from earlier work
[11] = tested on: MR over other steroid hormone receptors; design: method as in Arai et al. 2015a; settings: in vitro; ref Arai et al. 2015a; cited from earlier work
DOCA/salt-loading rats = settings: cited from earlier work
[12] = cited from earlier work; remark: listed apart in the source
aldosterone receptor = tested on: aldosterone receptor; design: method as in Claire et al. 1979; settings: ref Claire et al. 1979; cited from earlier work
[13] = design: method as in Pitt et al. 1999; settings: low dose on top of standard of care; ref Pitt et al. 1999; cited from earlier work
dogs and monkeys = settings: ref Lumb et al. 1978; cited from earlier work
[14] = design: method as in Kolkhof & Borden 2012; settings: mice; ref Kolkhof & Borden 2012; cited from earlier work
[15] = tested on: aldosterone-induced cardiac necrosis; design: method as in Selye 1960; settings: rats; ref Selye 1960; cited from earlier work
rats = settings: cited from earlier work
rat androgen receptor = tested on: rat androgen receptor; design: method as in Laurent et al. 1983; settings: ref Laurent et al. 1983; cited from earlier work
[16] = tested on: rat renal cytoplasmatic MR; design: method as in Casals-Stenzel et al. 1984; settings: ref Casals-Stenzel et al. 1984; cited from earlier work
urinary Na+/K+ ratio = tested on: urinary Na+/K+ ratio; design: method as in Casals-Stenzel et al. 1984; settings: rats, on average; ref Casals-Stenzel et al. 1984; cited from earlier work
progesterone receptor = tested on: progesterone receptor; design: method as in Laurent et al. 1983; settings: estrogen-primed rabbit uterus; ref Laurent et al. 1983; cited from earlier work
[17] = ref Karim 1978, Garthwaite & McMahon 2004
[18] = single oral dose 50 mg, healthy subjects, ref Thosar et al. 2003

CS[C@H]1[C@@H]2[C@H](CC[C@@]3(C)[C@H]2CC[C@@]32CCC(=O)O2)[C@@]2(C)CCC(=O)C=C2[C@@H]1O [HTMS, 6β-hydroxy-7α-thiomethyl-spironolactone]
mean half-life of spironolactone metabolite [1, 17]: 15.0 h | peak absolute plasma concentration ([1]; ref Gardiner et al. 1989): 125 ng/mL | peak relative plasma concentration ([1]; ref Gardiner et al. 1989): 16.1%

CC(=O)[C@H]1CC[C@H]2[C@@H]3CCC4=CC(=O)CC[C@]4(C)[C@H]3CC[C@]12C [Progesterone]
effect on S810L MR mutant (S810L MR mutant): paradoxically activate

C[C@]12CCC(=O)C=C1CC[C@@H]1[C@@H]2CC[C@@]2(C)[C@H]1CC[C@@]21CCC(=O)O1 [SC-5233, 3-(3-oxo-17β-hydroxy-4-androsten-17α-yl)propionic acid γ-lactone]
in vivo progestational activity [2]: substantial in vivo progestational activity | natriuretic activity in patients [3]: natriuretic activity | antagonistic efficacy in mineralocorticoid-dependent models ([4]; strictly dependent on presence of a mineralocorticoid, ref Kagawa et al. 1959): convincing antagonistic efficacy

C[C@]12CC[C@H]3[C@@H](CCC4=CC(=O)CC[C@@H]43)[C@@H]1CC[C@@]21CCC(=O)O1 [SC-8109]
in vivo progestational activity [2]: substantial in vivo progestational activity | potency on mineralocorticoid-dependent sodium retention relative to SC-5233 ([4]; adrenalectomized rats, ref Kagawa et al. 1957): more potent than SC-5233

CS[C@@H]1CC2=CC(=O)CC[C@]2(C)[C@H]2CC[C@@]3(C)[C@@H](CC[C@@]34CCC(=O)O4)[C@H]12 [TMS, 7α-thiomethyl-spironolactone]
mean half-life of spironolactone metabolite [1, 17]: 13.8 h | peak absolute plasma concentration ([1]; ref Gardiner et al. 1989): 391 ng/mL | peak relative plasma concentration ([1]; ref Gardiner et al. 1989): 50.3%

C[C@]12CCC(=O)C=C1C=C[C@@H]1[C@@H]2CC[C@@]2(C)[C@H]1CC[C@@]21CCC(=O)O1 [canrenone]
mean half-life of spironolactone metabolite [1, 17]: 16.5 h | canrenone proportion of metabolites after spironolactone ([1]; multiple doses, ref Gardiner et al. 1989): about 23% | canrenone proportion of metabolites after spironolactone ([1]; single dose, ref Merkus et al. 1983): about 15% | peak absolute plasma concentration ([1]; ref Gardiner et al. 1989): 181 ng/mL | peak relative plasma concentration ([1]; ref Gardiner et al. 1989): 23.3%

C[C@]12CCC(=O)C=C1[C@@H]1C[C@@H]1[C@H]1[C@@H]3[C@@H]4C[C@@H]4[C@@]4(CCC(=O)O4)[C@@]3(C)CC[C@@H]12 [drospirenone, 1,2-dihydro-spirorenone]
potency relative to spironolactone on the MR in rats (MR): eight times more potent

COC(=O)[C@@H]1CC2=CC(=O)CC[C@]2(C)[C@@]23O[C@@H]2C[C@@]2(C)[C@@H](CC[C@@]24CCC(=O)O4)[C@H]13 [eplerenone, 9-11α-epoxymexrenone]
effect on S810L MR mutant (S810L MR mutant): paradoxically activate | IC50 (human MR): 970 nM | efficacy compared to 50 mg spironolactone twice daily [5]: 50–75% | natriuretic activity vs spironolactone [6]: rough equi-efficacy | accumulation of drug equivalent concentration in kidneys compared with heart tissue [7]: ≥ 3 fold | incidence of serious hyperkalemia (≥6 mmol/L) vs placebo ([8]; P = 0.002): significantly higher | primary endpoint, death from any cause or hospitalization for CV events ([8]; vs placebo, mean follow-up 16 months): significantly reduced | bound fraction (plasma proteins) (human plasma proteins; ref Inspra Prescribing Information 2002): about 50% | cardiorenal protection [9]: only partial cardiorenal protection | active metabolites ([10]; ref Kolkhof & Borden 2012): no active metabolites | duration of natriuretic effect [10, 18]: ~ 10 h | half-life [10, 18]: 2.9 h | half-life ([10]; steady state after multiple doses of 100 mg, ref Cook et al. 2003): 4 h

Cc1c(C(=O)Nc2ccc(S(C)(=O)=O)cc2)cn(CCO)c1-c1ccccc1C(F)(F)F [esaxerenone, (5S)-1-(2-hydroxyethyl)-4-methyl-N-[4-(methylsulfonyl)phenyl]-5-[2-(trifluoromethyl)phenyl]-1H-pyrrole-3-carboxamide]
IC50 (human MR): 3.7 nM | selectivity for MR over other steroid hormone receptors [11]: ≥ 1000 fold | antihypertensive activity vs spironolactone or eplerenone (DOCA/salt-loading rats; DOCA/salt-loading rats, ref Arai et al. 2015a): more pronounced antihypertensive activity | effect on hypertension and renal injury in DOCA rats (DOCA/salt-loading rats; ref Arai et al. 2016): not only prevented but also ameliorated | antihypertensive effect ([9]; chronic treatment, 0.5 mg/kg equivalent to spironolactone or eplerenone 100 mg/kg): dose-dependent antihypertensive effect | reduction of proteinuria and renal hypertrophy, potency vs spironolactone and eplerenone [9]: superior potency

CC(=O)S[C@@H]1CC2=CC(=O)C=C[C@]2(C)[C@H]2CC[C@@]3(C)[C@@H]([C@@H]4C[C@@H]4[C@@]34CCC(=O)O4)[C@H]12 [mespirenone, 15β,16β-methylene-spironolactone]
natriuretic potency relative to spironolactone ([12]; healthy volunteers, ref Losert et al. 1986): 6 fold

C[C@]12CCC(=O)C=C1[C@@H]1C[C@@H]1[C@@H]1[C@@H]2CC[C@@]2(C)[C@H]1CC[C@@]21CCC(=O)O1 [prorenone]
effect on nuclear translocation of the aldosterone receptor (aldosterone receptor): blocks nuclear translocation

CC(=O)S[C@@H]1CC2=CC(=O)CC[C@]2(C)[C@H]2CC[C@@]3(C)[C@@H](CC[C@@]34CCC(=O)O4)[C@H]12 [spironolactone, 7α-acetylthio-17α-hydroxy-3-oxopregn-4-ene-21-carboxylic acid γ-lactone]
mortality in severe heart failure [13]: mortality reduction | tumorigenic or carcinogenic potential in chronic dog and monkey studies (dogs and monkeys): no tumorigenic or carcinogenic potential | effect on S810L MR mutant (S810L MR mutant): paradoxically activate | IC50 (human MR): […] | plasma half-life [1, 17]: less than 2 h | peak absolute plasma concentration ([1]; ref Gardiner et al. 1989): […] | whole radioactivity in cardiac tissue [14]: below the detection limit | protection from aldosterone-induced cardiac necrosis [15]: protected | tumor finding, 104-week rat study (rats; 10, 30 and 100 mg/kg/day, ref Aldactone NDA 2008): significant increases in hepatocellular adenomas and benign testicular and thyroid adenomas | tumor finding, 78-week rat study (rats; male rats, 500 mg/kg, 78 weeks, ref Mayer et al. 1988): increased numbers of benign testicular adenomas | finding in chronic toxicity studies in rats (rats; rat, in vivo): tumorigenic | bound to human plasma proteins (human plasma proteins; ref Chien et al. 1976): 94% | cardiorenal protection [9]: only partial cardiorenal protection

C[C@]12C=CC(=O)C=C1[C@@H]1C[C@@H]1[C@H]1[C@@H]3[C@@H]4C[C@@H]4[C@@]4(CCC(=O)O4)[C@@]3(C)CC[C@@H]12 [spirorenone]
affinity for the rat androgen receptor (rat androgen receptor): practically no affinity | affinity for rat renal cytoplasmatic MR relative to spironolactone [16]: 0.73 times | in vivo activity on urinary Na+/K+ ratio relative to spironolactone (urinary Na+/K+ ratio): 8.6 times | potency relative to spironolactone, urinary sodium excretion ([12]; single dose, healthy individuals, ref Seifert et al. 1982): at least 4 times | affinity for the progesterone receptor vs spironolactone (progesterone receptor): higher affinity
